Measured values reported in ChEMBL document CHEMBL5316268 (J Med Chem, 2023).
Calls of active or inactive are those of the source. The rule behind the calls is not given here.

Legend:
[1] = Clearance in CD rat at 1 mg/kg, iv measured for 24 hrs by LC-MS/MS analysis; type: ADME, organism-based; conditions: in vivo
[2] = system: EG7; assay: Antitumor activity against mouse EG7 cells implanted in mouse; type: functional, cell-based
[3] = biological target: T1, 5'-nucleotidase (Mus musculus, UniProt Q61503); assay: Inhibition of C-terminal 6His-tagged recombinant mouse CD73 (29 to 549 residues) expressed in CHO cells incubated for 1 hr by malachite green assay; type: cell-based
T1 sequence (Q61503 whole entry): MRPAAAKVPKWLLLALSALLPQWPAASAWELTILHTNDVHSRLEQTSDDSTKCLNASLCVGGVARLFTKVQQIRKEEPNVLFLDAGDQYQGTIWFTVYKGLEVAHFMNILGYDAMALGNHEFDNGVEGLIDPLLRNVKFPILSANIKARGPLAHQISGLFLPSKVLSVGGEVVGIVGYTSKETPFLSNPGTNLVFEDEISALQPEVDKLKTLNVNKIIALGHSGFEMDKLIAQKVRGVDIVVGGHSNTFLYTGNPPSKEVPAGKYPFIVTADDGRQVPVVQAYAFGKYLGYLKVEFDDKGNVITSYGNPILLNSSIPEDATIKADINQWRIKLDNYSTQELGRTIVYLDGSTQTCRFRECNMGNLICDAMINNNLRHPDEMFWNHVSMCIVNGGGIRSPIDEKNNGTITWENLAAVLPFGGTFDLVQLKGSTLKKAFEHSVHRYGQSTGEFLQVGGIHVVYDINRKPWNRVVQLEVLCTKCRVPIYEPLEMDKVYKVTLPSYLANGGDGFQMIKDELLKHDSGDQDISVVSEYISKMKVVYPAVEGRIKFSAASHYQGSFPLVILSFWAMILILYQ

[4] = biological target: T2, 5'-nucleotidase (Homo sapiens, UniProt P21589); assay: Inhibition of CD73 in human plasma incubated for 15 mins in presence of 15N5-AMP by LC/MS analysis; type: cell-free
[5] = biological target: T2, 5'-nucleotidase; assay: Inhibition of recombinant human CD73
[6] = Selectivity ratio of IC50 for CD73 in human plasma to IC50 for C-terminal 6His-tagged recombinant human CD73 (27 to 547 residues) expressed in CHO cells; type: cell-based
[7] = biological target: T2, 5'-nucleotidase; assay: Inhibition of soluble C-terminal 6His-tagged recombinant human CD73 (27 to 547 residues) expressed in CHO cells incubated for 1 hr by malachite green based spectrophotometer assay; type: cell-based
[8] = biological target: T2, 5'-nucleotidase; assay: Inhibition of cell surface anchored CD73 (unknown origin) expressed in human SK-MEL-28 cells incubated for 30 mins by malachite green assay; type: cell-based
[9] = Oral bioavailability in CD rat at 50 mg/kg measured for 24 hrs by LC-MS/MS analysis; type: ADME, organism-based; conditions: CD, in vivo

T2 sequence (P21589 whole entry): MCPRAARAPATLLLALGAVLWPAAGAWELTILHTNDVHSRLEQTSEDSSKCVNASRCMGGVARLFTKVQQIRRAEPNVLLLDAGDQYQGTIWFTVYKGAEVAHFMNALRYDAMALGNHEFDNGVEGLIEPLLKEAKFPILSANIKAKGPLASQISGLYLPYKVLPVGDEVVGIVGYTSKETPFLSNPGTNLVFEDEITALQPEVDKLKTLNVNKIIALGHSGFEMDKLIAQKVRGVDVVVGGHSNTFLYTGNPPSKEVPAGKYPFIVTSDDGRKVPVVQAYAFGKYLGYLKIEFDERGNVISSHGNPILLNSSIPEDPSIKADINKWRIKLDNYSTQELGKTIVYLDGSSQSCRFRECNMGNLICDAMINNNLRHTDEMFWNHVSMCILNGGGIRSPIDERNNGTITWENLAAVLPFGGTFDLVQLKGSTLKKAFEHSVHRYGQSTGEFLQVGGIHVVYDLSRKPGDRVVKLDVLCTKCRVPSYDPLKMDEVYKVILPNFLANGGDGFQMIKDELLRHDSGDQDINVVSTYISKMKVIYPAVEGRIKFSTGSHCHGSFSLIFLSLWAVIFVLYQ

clearance [1] [mL/min/kg]	IC50 [4] [nM]	SMILES	also measured
13	–	C#C[C@@]1(O)[C@@H](COC(Cc2ccccc2)(C(=O)O)C(=O)O)O[C@@H](n2cnc3c(N)nc(Cl)nc32)[C@@H]1O	Activity [2]: Active; IC50 [3]: 7.3 nM
9.2	208	C#C[C@@]1(O)[C@@H](COC(Cc2ccccc2)(C(=O)O)C(=O)O)O[C@@H](n2cnc3c(N[C@@H](C)c4ccccc4)nc(Cl)nc32)[C@@H]1O	–
3.7	11.5	C#C[C@@]1(O)[C@@H](COC(Cc2ccccc2)(C(=O)O)C(=O)O)O[C@@H](n2cnc3c(NCC4CC4)nc(Cl)nc32)[C@@H]1O	–
–	–	Nc1ncnc2c1ncn2[C@@H]1O[C@H](COP(=O)(O)CP(=O)(O)O)[C@@H](O)[C@H]1O [PHOSPHOMETHYLPHOSPHONIC ACID ADENOSYL ESTER]	IC50 [5]: 6090 nM
7.8	6.5	C#C[C@@]1(O)[C@@H](COC(Cc2ccccc2)(C(=O)O)C(=O)O)O[C@@H](n2cnc3c(NCC)nc(Cl)nc32)[C@@H]1O	–
2.9	2.8	C#C[C@@]1(O)[C@@H](COC(Cc2ccc(-c3ccccc3C(=O)O)cc2)(C(=O)O)C(=O)O)O[C@@H](n2cnc3c(N)nc(Cl)nc32)[C@@H]1O	Ratio IC50 [6]: 14
0.91	160	C#C[C@@]1(O)[C@@H](COC(Cc2ccccc2)(C(=O)O)C(=O)O)O[C@@H](n2cnc3c(NC(C)C)cc(Cl)nc32)[C@@H]1O	IC50 [7]: 2 nM
9.9	1.6	CC#C[C@@]1(O)[C@@H](COC(Cc2ccccc2)(C(=O)O)C(=O)O)O[C@@H](n2cnc3c(N)nc(Cl)nc32)[C@@H]1O	–
–	–	CC[C@@]1(O)[C@@H](COC(Cc2ccccc2)(C(=O)O)C(=O)O)O[C@@H](n2cnc3c(N)nc(Cl)nc32)[C@@H]1O	IC50 [7]: 200 nM
18	16	C#C[C@@]1(O)[C@@H](COC(Cc2ccccc2)(C(=O)O)C(=O)O)O[C@@H](n2cnc3c(N(C)C)nc(Cl)nc32)[C@@H]1O	–
–	–	C[C@@]1(O)[C@@H](COC(Cc2ccccc2)(C(=O)O)C(=O)O)O[C@@H](n2cnc3c(N)nc(Cl)nc32)[C@@H]1O	IC50 [8]: 169 nM
–	136	C#C[C@@]1(O)[C@@H](COC(Cc2ccccc2)(C(=O)O)C(=O)O)O[C@@H](n2cnc3c(-c4cccs4)nc(Cl)nc32)[C@@H]1O	–
–	–	CN(C(=O)c1ccccc1)c1ccc(CC(OC[C@H]2O[C@@H](n3cnc4c(N)nc(Cl)nc43)[C@@H](F)[C@@H]2O)(C(=O)O)C(=O)O)cc1	IC50 [5]: 9 nM
10	15.5	C#C[C@@]1(O)[C@@H](COC(Cc2ccccc2)(C(=O)O)C(=O)O)O[C@@H](n2cnc3c(NC)nc(Cl)nc32)[C@@H]1O	–
17	5.4	C#C[C@@]1(O)[C@@H](COC(Cc2ccccc2)(C(=O)O)C(=O)O)O[C@@H](n2cnc3c(N4CC(O)C4)nc(Cl)nc32)[C@@H]1O	–
–	0.38	C#C[C@@]1(O)[C@@H](COC(Cc2ccc(-c3ccc[nH]c3=O)cc2)(C(=O)O)C(=O)O)O[C@@H](n2cnc3c(N)nc(Cl)nc32)[C@@H]1O	Ratio IC50 [6]: 3.8
–	–	C#C[C@@]1(O)[C@@H](COC(Cc2ccc(N3CCCCC3=O)cc2)(C(=O)O)C(=O)O)O[C@@H](n2cnc3c(N)nc(Cl)nc32)[C@@H]1O	Ratio IC50 [6]: 1
64	15.6	C#C[C@@]1(O)[C@@H](COC(Cc2ccc(-c3ccccc3)cc2)(C(=O)O)C(=O)O)O[C@@H](n2cnc3c(N)nc(Cl)nc32)[C@@H]1O	Ratio IC50 [6]: 52
7.5	7.2	C#C[C@@]1(O)[C@@H](COC(Cc2ccccc2)(C(=O)O)C(=O)O)O[C@@H](n2cnc3c(NCCO)nc(Cl)nc32)[C@@H]1O	–
20.4	–	Nc1nc(Cl)nc2c1ncn2[C@@H]1O[C@H](COC(Cc2ccccc2)(C(=O)O)C(=O)O)[C@@H](O)[C@H]1O	IC50 [8]: 434 nM; bioavailability [9]: 1.8%; IC50 [5]: 100 nM
1	917	C#C[C@@]1(O)[C@@H](COC(Cc2ccccc2)(C(=O)O)C(=O)O)O[C@@H](n2cnc3c(N[C@H](C)c4ccccc4)nc(Cl)nc32)[C@@H]1O	–
54	1.5	Nc1nc(Cl)nc2c1ncn2[C@@H]1O[C@H](COC(Cc2ccccc2)(C(=O)O)C(=O)O)[C@](O)(C#CC2CC2)[C@H]1O	–
6.3	> 100	C#C[C@@]1(O)[C@@H](COC(Cc2ccccc2)(C(=O)O)C(=O)O)O[C@@H](n2cnc3c(NCc4ccccc4)nc(Cl)nc32)[C@@H]1O	–
–	–	Nc1nc(Cl)nc2c1ncn2[C@@H]1O[C@H](COC(Cc2ccccc2)(C(=O)O)C(=O)O)[C@@H](O)[C@@H]1F	IC50 [5]: 159 nM
1.4	50	C#C[C@@]1(O)[C@@H](COC(Cc2ccccc2)(C(=O)O)C(=O)O)O[C@@H](n2cnc3c(NC(C)C)nc(Cl)nc32)[C@@H]1O	–
5.9	41	C#C[C@@]1(O)[C@@H](COC(Cc2ccccc2)(C(=O)O)C(=O)O)O[C@@H](n2cnc3c(N(C)C)cc(Cl)nc32)[C@@H]1O	IC50 [7]: 2.1 nM
